Source: US20260201008A1, “SECRETIN-DERIVED GLP1R SELECTIVE AGONISTS” (GUBRA A/S, priority 2023, published 2026)
Read-outs that look alike come from different tables or passages of the source. Numbered stars: 1 amine (or outer) side, 2 acyl side, 3 side chain; on linkers, the order of the positions; unused ones are H or OH. Square brackets hold non-standard residues; d marks the D form. Side chains are listed from the residue outwards. Peptide text beside a SMILES is read from it. * marks the point of attachment. C20 diacid = O=C(O)CCCCCCCCCCCCCCCCCCC(=O)*; γGlu = O=C(O)[C@H](CCC(=O)[*:2])N[*:1]; AEEA = NCCOCCOCC(=O)O; Aib = CC(C)(N)C(=O)O

Experiments:
GLP1R = GLP1R (Homo sapiens, UniProt P43220); experiment: hGLP1R potency, cAMP accumulation in CHO-K1 cells stably overexpressing hGLP1R; type: cell-based; set-up: host or cells: CHO-K1; conditions: for Selectivity: SCTR EC50/GLP1R EC50 ratio
Method in brief: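 Thawed cells go straight into buffer containing 0.5 mM IBMX and 0.05% casein, get graded compound doses for 30 min at room temperature, and are then assayed for accumulated cAMP by time-resolved FRET. Human GLP-1(7-36) serves as positive control; EC50 is derived by nonlinear regression.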

SCTR = SCTR (Homo sapiens, UniProt P47872); experiment: hSCTR potency, cAMP accumulation in CHO-K1 cells stably overexpressing hSCTR; type: cell-based; set-up: alternatively Euroscreen ES-712-AF; FAST-0161L; host or cells: CHO-K1
Method in brief: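 Read-out is TR-FRET cAMP detection, recorded one hour after reagent addition, in CHO-K1 cells stably overexpressing hSCTR. Cells in DPBS containing 0.05% casein and 0.5 mM IBMX are exposed to graded peptide doses for 30 min at room temperature, with human secretin as reference agonist.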

[1] = Fibril formation of crude library peptides (Thioflavin T); type: physicochemical; set-up: key: average ThT fluorescence emission at 480 nm (ex 450 nm), raw units; conditions: Physical stability of peptides
Method in brief: (§1)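 Crude peptides at 267 μM in 50 mM sodium acetate pH 4.0 or 50 mM sodium phosphate pH 7.0, pre-incubated 1-2 h at room temperature, then 4 μM final ThT added. Turbidity read first as A600. ThT fluorescence (ex 450/em 480 nm) read every 10 min for 72 h at 40° C, with 5 min shaking before each read; fibril formation = average emission.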

[2] = Turbidity of crude library peptides (absorbance at 600 nm); type: physicochemical; conditions: Physical stability of peptides
Method in brief: as §1

[3] = cAMP accumulation, CHO-K1 cells overexpressing hGLP1R, read-out: pEC50 hGLPR1 (converted)
[4] = cAMP accumulation, CHO-K1 cells overexpressing hSCTR, read-out: pEC50 hSCTR (converted)

Sequence of GLP1R (P43220 24-463): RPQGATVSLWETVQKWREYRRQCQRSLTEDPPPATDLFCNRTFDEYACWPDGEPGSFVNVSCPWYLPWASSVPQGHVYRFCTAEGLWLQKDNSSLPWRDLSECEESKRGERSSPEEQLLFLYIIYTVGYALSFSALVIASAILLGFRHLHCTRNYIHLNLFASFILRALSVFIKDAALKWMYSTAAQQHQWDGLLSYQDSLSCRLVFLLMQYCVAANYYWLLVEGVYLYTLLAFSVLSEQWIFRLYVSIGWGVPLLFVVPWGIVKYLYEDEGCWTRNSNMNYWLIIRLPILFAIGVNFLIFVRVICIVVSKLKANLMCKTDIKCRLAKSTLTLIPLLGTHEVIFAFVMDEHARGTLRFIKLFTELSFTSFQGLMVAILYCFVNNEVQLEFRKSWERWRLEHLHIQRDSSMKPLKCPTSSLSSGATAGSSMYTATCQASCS
Sequence of SCTR (P47872 23-440): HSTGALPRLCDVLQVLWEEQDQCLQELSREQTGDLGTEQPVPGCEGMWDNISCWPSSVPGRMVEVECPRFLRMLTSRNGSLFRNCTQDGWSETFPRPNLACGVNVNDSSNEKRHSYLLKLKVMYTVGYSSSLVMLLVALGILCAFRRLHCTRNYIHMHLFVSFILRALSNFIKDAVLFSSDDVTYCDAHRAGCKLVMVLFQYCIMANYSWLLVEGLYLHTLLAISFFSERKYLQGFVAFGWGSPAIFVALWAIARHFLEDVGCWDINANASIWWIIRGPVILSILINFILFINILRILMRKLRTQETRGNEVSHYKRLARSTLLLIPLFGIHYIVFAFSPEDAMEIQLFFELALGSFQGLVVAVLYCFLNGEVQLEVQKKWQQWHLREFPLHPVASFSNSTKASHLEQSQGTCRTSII

| Selectivity (GLP1R) | Fibril formation [1] | Turbidity (pH 7) [2] | EC50 (GLP1R; [3]) | EC50 (SCTR; [4]) | Compound | EC50 (GLP1R) | EC50 (SCTR) |
| --- | --- | --- | --- | --- | --- | --- | --- |
| 114525 | 10742 | 0.08 | 0.0316 nM | 3980 nM | CC(C)C[C@H](NC(=O)[C@H](Cc1ccccc1)NC(=O)[C@H](CCCNC(=N)N)NC(=O)[C@H](CCC(N)=O)NC(=O)[C@H](C)NC(=O)[C@H](C)NC(=O)[C@H](C)NC(=O)[C@@H](NC(=O)[C@H](CCC(=O)O)NC(=O)[C@H](CCCCNC(=O)COCCOCCNC(=O)COCCOCCNC(=O)CC[C@H](NC(=O)CCCCCCCCCCCCCCCCCCC(=O)O)C(=O)O)NC(=O)[C@H](CC(C)C)NC(=O)[C@H](Cc1ccccc1)NC(=O)[C@H](CO)NC(=O)[C@@H](NC(=O)[C@H](CC(=O)O)NC(=O)[C@H](CO)NC(=O)[C@@H](NC(=O)[C@H](Cc1ccccc1)NC(=O)[C@@H](NC(=O)CNC(=O)[C@H](CCC(=O)O)NC(=O)C(C)(C)NC(=O)[C@@H](N)Cc1c[nH]cn1)[C@@H](C)O)[C@@H](C)O)C(C)C)[C@@H](C)O)C(=O)N[C@@H](CCC(=O)O)C(=O)N[C@@H](Cc1c[nH]cn1)C(=O)N[C@@H](CC(C)C)C(=O)N[C@H](C(N)=O)C(C)C [compound 44] (H-H[Aib]EGTFTSDVSFLK([AEEA-AEEA-γGlu-C20 diacid])ETAAAQRFLEHLV-NH2) |  |  |
| 86896 | 14290 | 0.09 | 0.02 nM | 2000 nM | CC(C)C[C@H](NC(=O)[C@H](Cc1ccccc1)NC(=O)[C@H](CCCNC(=N)N)NC(=O)[C@H](CCC(N)=O)NC(=O)C(C)(C)NC(=O)[C@H](C)NC(=O)[C@H](C)NC(=O)[C@@H](NC(=O)[C@H](CCC(=O)O)NC(=O)[C@H](CCCCNC(=O)COCCOCCNC(=O)COCCOCCNC(=O)CC[C@H](NC(=O)CCCCCCCCCCCCCCCCCCC(=O)O)C(=O)O)NC(=O)[C@H](CC(C)C)NC(=O)[C@H](CCC(=O)O)NC(=O)[C@H](CO)NC(=O)[C@@H](NC(=O)[C@H](CC(=O)O)NC(=O)[C@H](CO)NC(=O)[C@@H](NC(=O)[C@H](Cc1ccccc1)NC(=O)[C@@H](NC(=O)CNC(=O)[C@H](CCC(=O)O)NC(=O)C(C)(C)NC(=O)[C@@H](N)Cc1c[nH]cn1)[C@@H](C)O)[C@@H](C)O)C(C)C)[C@@H](C)O)C(=O)N[C@@H](CCC(=O)O)C(=O)N[C@@H](Cc1c[nH]cn1)C(=O)N[C@@H](CC(C)C)C(=O)N[C@H](C(N)=O)C(C)C [compound 45] (H-H[Aib]EGTFTSDVSELK([AEEA-AEEA-γGlu-C20 diacid])ETAA[Aib]QRFLEHLV-NH2) |  |  |

| Compound | Selectivity (GLP1R) | Fibril formation [1] | Turbidity (pH 7) [2] | EC50 (GLP1R; [3]) | EC50 (SCTR; [4]) | EC50 (GLP1R) | EC50 (SCTR) |
| --- | --- | --- | --- | --- | --- | --- | --- |
| CC(C)C[C@H](NC(=O)[C@H](Cc1ccccc1)NC(=O)[C@H](CCCNC(=N)N)NC(=O)[C@H](CCC(N)=O)NC(=O)[C@H](C)NC(=O)[C@H](C)NC(=O)[C@H](C)NC(=O)C(C)(C)NC(=O)[C@H](CCC(=O)O)NC(=O)[C@H](CCCCNC(=O)COCCOCCNC(=O)COCCOCCNC(=O)CC[C@H](NC(=O)CCCCCCCCCCCCCCCCCCC(=O)O)C(=O)O)NC(=O)[C@H](CC(C)C)NC(=O)[C@@H](NC(=O)[C@H](CO)NC(=O)[C@@H](NC(=O)[C@H](CC(=O)O)NC(=O)[C@H](CO)NC(=O)[C@@H](NC(=O)[C@H](Cc1ccccc1)NC(=O)[C@@H](NC(=O)CNC(=O)[C@H](CCC(=O)O)NC(=O)C(C)(C)NC(=O)[C@@H](N)Cc1c[nH]cn1)[C@@H](C)O)[C@@H](C)O)C(C)C)[C@@H](C)O)C(=O)N[C@@H](CCC(=O)O)C(=O)N[C@@H](Cc1c[nH]cn1)C(=O)N[C@@H](CC(C)C)C(=O)N[C@H](C(N)=O)C(C)C [compound 43] (H-H[Aib]EGTFTSDVSTLK([AEEA-AEEA-γGlu-C20 diacid])E[Aib]AAAQRFLEHLV-NH2) | 36686 | 18355 | 0.09 |  |  | 0.01 nM | 316 nM |
